Measurements reported in BigSolDB 2.1.

COc1cnc(Cl)nc1Cl
Conditions	solubility (mole fraction)
in acetone, 297.35 K	0.348
in acetone, 299.36 K	0.368
in acetone, 301.17 K	0.386
in acetone, 303.13 K	0.403
in acetone, 304.54 K	0.42
in acetone, 306.18 K	0.436
in acetone, 307.53 K	0.45
in acetone, 308.97 K	0.466
in acetone, 310.25 K	0.481
in acetone, 311.37 K	0.492
in ethanol, 299.44 K	0.0474
in ethanol, 301.27 K	0.0527
in ethanol, 303.17 K	0.0584
in ethanol, 305.17 K	0.0655
in ethanol, 307.06 K	0.0745
in ethanol, 309.05 K	0.0855
in ethanol, 310.73 K	0.0972
in ethanol, 312.58 K	0.11
in ethanol, 314 K	0.125
in ethanol, 315.47 K	0.141
in ethanol, 316.61 K	0.158
in ethyl acetate, 295.6 K	0.288
in ethyl acetate, 296.53 K	0.295
in ethyl acetate, 298.25 K	0.311
in ethyl acetate, 300.66 K	0.33
in ethyl acetate, 302.28 K	0.347
in ethyl acetate, 304.15 K	0.364
in ethyl acetate, 305.62 K	0.382
in ethyl acetate, 307.47 K	0.401
in ethyl acetate, 309.19 K	0.422
in ethyl acetate, 311.16 K	0.444
in ethyl acetate, 313.07 K	0.468
in ethyl acetate, 314.57 K	0.49
in ethyl acetate, 316.39 K	0.513
in methanol, 302.37 K	0.0598
in methanol, 303.78 K	0.0659
in methanol, 305.44 K	0.0734
in methanol, 306.57 K	0.0803
in methanol, 308.12 K	0.0893
in methanol, 309.67 K	0.102
in methanol, 311.15 K	0.114
in methanol, 312.43 K	0.13
in methanol, 313.55 K	0.146
in methanol, 314.81 K	0.163
in methanol, 315.8 K	0.181
in methanol, 316.95 K	0.202
in n-heptane, 298.1 K	0.0094
in n-heptane, 299.83 K	0.0104
in n-heptane, 302.1 K	0.0116
in n-heptane, 303.81 K	0.0129
in n-heptane, 305.72 K	0.0141
in n-heptane, 307.55 K	0.0157
in n-heptane, 309.57 K	0.0174
in n-heptane, 310.97 K	0.0192
in n-heptane, 312.89 K	0.0214
in n-heptane, 315.04 K	0.0239
in n-heptane, 317.15 K	0.0268
in n-heptane, 318.83 K	0.0296
in n-heptane, 320.08 K	0.0324
in tetrachloromethane, 298.6 K	0.123
in tetrachloromethane, 299.42 K	0.13
in tetrachloromethane, 300.63 K	0.143
in tetrachloromethane, 301.97 K	0.159
in tetrachloromethane, 303.35 K	0.178
in tetrachloromethane, 304.82 K	0.196
in tetrachloromethane, 305.8 K	0.214
in tetrachloromethane, 306.87 K	0.237
in tetrachloromethane, 308.2 K	0.261
in tetrachloromethane, 309.57 K	0.288
in tetrachloromethane, 310.9 K	0.315
in tetrachloromethane, 312.15 K	0.343
